Laboratory results as given in US4497803A, “Inclusion compound of lankacidin-group antibiotic and use thereof” (priority 1982, dated 1985).
In brackets after ≈: the same amount, converted by molar mass. Where two headings read alike, the source gives them in different places.

Legend:
[1] = Solubility of inclusion compound in water; type: physicochemical
Description: The lankacidin-group is added to each of solutions containing various amounts of cyclodextrin. The minimum concentration of cyclodextrin which dissolves the maximum amount of the lankacidin-group compound and practical concentrations thereof are determined on the basis of amounts of the lankacidin-group compound dissolved in the cyclodextrin solutions. Then, the molar ratio of cyclodextrin to lankacidin-group compound is calculated by the following equation:
Molar ratio=[Molarity of cyclodextrin]:[(Saturation molarity of lankacidin-group compound in a certain concentration of cyclodextrin-solution)-(saturation molarity of lankacidin-group compound in an aqueous solution)].
Moreover, a large amount of the present inclusion compound is dissolved in water and it is kept stably therein. Solubility of the inclusion compound in water is greater than that of landacidin-group compounds in water, when the amount of the inclusion compound dissolved is calculated in terms of lankacidin-group compound, and than saturation concentration of cyclodextrin in water so far as cyclodextrin contained in the inclusion compound is concerned (Table 2).
(1) Solubility of lankacidingroup in water.
(2) Solubility of lankacidingroup in M/100 cyclodextrin solution.
(3) Concentration of cyclodextrin of (2).
(4) Solubility (maximum) of the present inclusion compound (calculated in
terms of lankacidingroup contained) in water.
(5) Concentration of cyclodextrin contained in the inclusion compound of […]

[2] = Stability of lankacidin A and C in methanolic aqueous solutions, 40° C., HPLC (Example 7); type: physicochemical; conditions: for Residual rate / remaining at 4 h / remaining at 6 h: 10 μg/ml, 40° C.; for Residual rate: 0 hr; for remaining at 4 h / remaining at 6 h: read-out: Residual rate
Description: 5 ml each of a methanolic solution containing lankacidin A or C in a concentration of 100 μg per ml was added to 45 ml each of pH 4.5 and pH 7.0 buffer solutions and a buffer solution containing β-cyclodextrin.
Each mixture was placed in a glass vessel, and then sealed. While the mixtures were kept in the vessel at 40° C., 5 ml each was taken out from time to time and extracted with ethyl acetate. The organic layers were dried over anhydrous sodium sulfate and the concentrations of the lankacidin A or C was measured with high-performance liquid chromatography (HPLC).
Apparatus: Water Associates ALC/GPC 240 (Waters Associates Inc., U.S.A.)
Column: μPoracil 30 cm×3.9 mm.phi.
Eluent: n-Hexane: isopropyl alcohol: acetic acid (75:25:0.2).

St. aureus 209P = experiment: Stability of inclusion compound of lankacidin-group (24° C., for 6 days): antibacterial activity by paper disk assay; type: cell-based; conditions: methanol, 1000 μg/ml
Description: The inclusion compound of the present invention is stable in an aqueous solution, although it splits into lankacidin-group moiety and cyclodextrins moiety, when it is in the form of solution or powder, by contacting it with organic solvents (e.g., ethyl acetate, methyl isobutyl ketone) or various carriers (e.g., silica gel, high-porous resins). […] In comparing the antibacterial activity, concentrations of the inclusion compound are calculated in terms of lankacidin-group compound from which the inclusion compound is prepared.
Stability of inclusion compound of lankacidin-group
*1 Paper disk assay using Trypticase soy agar (Baltimore Biologicals Ltd.
U.S.A.) as test culture media.
*2 1000 μg/ml, Lankacidingroup is stable in methanol.
*3 Aqueous solution of the inclusion compound with cyclodextrin (1000
μg/ml calculated in terms of lankacidingroup)

[3] = Solubility in β-CD solution, shaken 16 hours (Example 3); type: physicochemical
Description: Powdery lankacidin C was added to an aqueous solution of cyclodextrin (hereinafter referred to as "CD") to have 4 mg/ml of the lankacidin C contained. After the mixture was stirred with a mixer, it was shaken at 5° C. for 2 hours, and passed through filter paper. The absorbancy of the filtrate was measured at 227-229 nm to determine concentration of the lankacidin C.
The solubilities of lankacidin A, lankacidin C and lankacidinol in a β-CD solution were measured in the same manner as that of Example 1 except that the shaking was continued for 16 hours.

[4] = Solubility / suspension in physiological saline for injection (Test Example); type: physicochemical
Description: 10 mg (titer) calculated in terms of lankacidin A is soluble in 1 ml each of physiological saline solution. As a control, lankacidin A itself used in Example 5 was employed.
5.2 ml (titer: 10 mg/kg) of this suspension was administered to pig No. 1 and 4.9 ml (titer: 7 mg/kg) was administered to pig No. 2 by injecting it into root portion of ear once a day for two days.
Thus, administration was impossible.

[5] = methanolic buffer with β-cyclodextrin, pH 4.5, β-cyclodextrin 10 mg/ml
[6] = methanolic buffer with β-cyclodextrin, pH 7.0, β-cyclodextrin 10 mg/ml

Question: What does the source list for `CC(=O)OC1C=CC(C)=CCC(O)C=CC(C)=CC(NC(=O)C(C)=O)C2(C)C(=O)OC(C1)C(C)C2=O` (centres unmarked) [Lankacidin A, lankacidin A]?
Answer: solubility ([1]; m/100 cyclodextrin solution, M/100 cyclodextrin, (3) cyclodextrin 11.3 mg/ml, read-out: (2) Solubility of lankacidin-group in M/100 cyclodextrin solution): 2690 µg/mL (≈ 5360 µM); solubility ([1]; water, read-out: (1) Solubility of lankacidin-group in water): 181 µg/mL (≈ 361 µM); Residual rate ([2]; pH 4.5, no β-cyclodextrin): 100%; Residual rate ([2]; pH 4.5, β-cyclodextrin 10 mg/ml): 100%; Residual rate ([2]; pH 7.0, no β-cyclodextrin): 100%; Residual rate ([2]; pH 7.0, β-cyclodextrin 10 mg/ml): 100%; Effect of β-cyclodextrin on stability in methanolic aqueous solutions ([2]; 1000 times β-CD by weight added): increased stabilities; remaining at 4 h ([2]; methanolic aqueous buffer, pH 4.5, no β-cyclodextrin): 34.5%; remaining at 4 h ([2]; methanolic aqueous buffer, pH 7.0, no β-cyclodextrin): 17.4%; remaining at 4 h [2, 5]: 91.9%; remaining at 6 h [2, 5]: 85.7%; remaining at 4 h [2, 6]: 58.3%; remaining at 6 h [2, 6]: 48.1%; Antibacterial activity, inhibition diameter (St. aureus 209P; 0 day): 26.75 mm; Antibacterial activity, inhibition diameter (St. aureus 209P; 3 days at 24° C.): 27.0 mm; Antibacterial activity, inhibition diameter (St. aureus 209P; 6 days at 24° C.): 23.25 mm; solubility at 16 h ([3]; aqueous β-cd solution, β-CD 2 × 10^-3 Mol/l): 632 µg/mL (≈ 1260 µM); solubility at 16 h ([3]; aqueous β-cd solution, β-CD 2 × 10^-4 Mol/l): 201 µg/mL (≈ 401 µM); solubility at 16 h ([3]; aqueous β-cd solution, β-CD 5 × 10^-3 Mol/l): 1370 µg/mL (≈ 2730 µM); solubility at 16 h ([3]; aqueous β-cd solution, β-CD 5 × 10^-4 Mol/l): 265 µg/mL (≈ 528 µM); solubility at 16 h ([3]; aqueous β-cd solution, β-CD 10^-2 Mol/l): 2690 µg/mL (≈ 5360 µM); solubility at 16 h ([3]; aqueous β-cd solution, β-CD 10^-3 Mol/l): 400 µg/mL (≈ 797 µM); solubility at 16 h ([3]; aqueous β-cd solution, β-CD 10^-4 Mol/l): 195 µg/mL (≈ 389 µM); Solubility in β-CD solution as function of β-CD concentration ([3]; from the vicinity of 10^-3 Mol/l of β-CD): increase in proportion to the concentration of β-CD; solubility at 16 h ([3]; water, β-CD 0 Mol/l): 181 µg/mL (≈ 361 µM); Preparation of injection/suspension in sterilized physiological saline solution [4]: suspension could not be obtained due to separation of the drug
